Source: the NIST ThermoML archive (doi:10.1016/j.tca.2011.06.003)

Test: xn = mol fraction of the nth substance listed
Conditions: 101 kPa, Liquid; for speed of sound: Sing-around technique in a fixed-path interferometer; for mass density: Vibrating tube method

NCCNCCN [di(2-aminoethyl)amine] + CC(C)O
Conditions	mass density [kg/m3]	speed of sound [m/s]	viscosity [mPa·s]
293.15 K, x1 = 0.0534	803.892	1206.4	–
293.15 K, x1 = 0.1022	818.972	1244.9	–
293.15 K, x1 = 0.1556	830.953	1283.2	–
293.15 K, x1 = 0.2053	842.389	1318.6	–
293.15 K, x1 = 0.2541	852.667	1350.5	–
293.15 K, x1 = 0.3083	863.147	1383.9	–
293.15 K, x1 = 0.4044	880.002	1438.7	–
293.15 K, x1 = 0.5025	894.43	1488.6	–
293.15 K, x1 = 0.6122	909.336	1538.2	–
293.15 K, x1 = 0.711	921.252	1583.2	–
293.15 K, x1 = 0.8021	930.895	1618.9	–
293.15 K, x1 = 0.8555	936.343	1638	–
293.15 K, x1 = 0.9092	941.621	1658.5	–
293.15 K, x1 = 0.953	945.719	1673.3	–
298.15 K, x1 = 0.0532	–	–	2.514
298.15 K, x1 = 0.0534	799.63	1188.7	–
298.15 K, x1 = 0.1022	814.391	1227.2	2.884
298.15 K, x1 = 0.1556	826.675	1265.5	3.313
298.15 K, x1 = 0.2053	838.104	1300.9	3.628
298.15 K, x1 = 0.2541	848.377	1332.6	3.97
298.15 K, x1 = 0.3083	858.864	1365.9	4.268
298.15 K, x1 = 0.4044	875.743	1420.7	4.708
298.15 K, x1 = 0.5025	890.185	1470	4.984
298.15 K, x1 = 0.6122	905.106	1518.9	5.192
298.15 K, x1 = 0.711	917.035	1563.1	5.223
298.15 K, x1 = 0.8021	926.667	1599.5	5.286
298.15 K, x1 = 0.8555	932.115	1618.5	5.383
298.15 K, x1 = 0.9092	937.389	1638.7	5.441
298.15 K, x1 = 0.953	941.486	1653.4	5.54
303.15 K, x1 = 0.0532	–	–	2.087
303.15 K, x1 = 0.0534	795.321	1171.2	–
303.15 K, x1 = 0.1022	809.803	1209.5	2.388
303.15 K, x1 = 0.1556	822.362	1247.7	2.697
303.15 K, x1 = 0.2053	833.79	1282.9	2.976
303.15 K, x1 = 0.2541	844.065	1314.6	3.217
303.15 K, x1 = 0.3083	854.559	1347.8	3.423
303.15 K, x1 = 0.4044	871.471	1402.2	3.721
303.15 K, x1 = 0.5025	885.922	1452.9	3.901
303.15 K, x1 = 0.6122	900.866	1503.2	4.08
303.15 K, x1 = 0.711	912.782	1543	4.184
303.15 K, x1 = 0.8021	922.433	1579.1	4.264
303.15 K, x1 = 0.8555	927.887	1599	4.357
303.15 K, x1 = 0.9092	933.158	1619	4.423
303.15 K, x1 = 0.953	937.25	1634.5	4.47
308.15 K, x1 = 0.0532	–	–	1.858
308.15 K, x1 = 0.0534	790.957	1153.7	–
308.15 K, x1 = 0.1022	805.422	1191.8	2.064
308.15 K, x1 = 0.1556	818.019	1230	2.315
308.15 K, x1 = 0.2053	829.45	1265.1	2.526
308.15 K, x1 = 0.2541	839.731	1296.8	2.708
308.15 K, x1 = 0.3083	850.238	1329.7	2.875
308.15 K, x1 = 0.4044	867.103	1383.3	3.121
308.15 K, x1 = 0.5025	881.653	1432.7	3.296
308.15 K, x1 = 0.6122	896.616	1483.5	3.442
308.15 K, x1 = 0.711	908.535	1525.3	3.539
308.15 K, x1 = 0.8021	918.202	1561.5	3.608
308.15 K, x1 = 0.8555	923.66	1580.4	3.683
308.15 K, x1 = 0.9092	928.927	1599.6	3.734
308.15 K, x1 = 0.953	933.022	1615.1	3.771
313.15 K, x1 = 0.0534	786.529	1136.1	–
313.15 K, x1 = 0.1022	801.012	1174.3	–
313.15 K, x1 = 0.1556	813.627	1212.7	–
313.15 K, x1 = 0.2053	825.068	1247.5	–
313.15 K, x1 = 0.2541	835.36	1278.6	–
313.15 K, x1 = 0.3083	845.885	1311.4	–
313.15 K, x1 = 0.4044	862.786	1365.6	–
313.15 K, x1 = 0.5025	877.353	1415.7	–
313.15 K, x1 = 0.6122	892.409	1467	–
313.15 K, x1 = 0.711	904.278	1509.1	–
313.15 K, x1 = 0.8021	913.964	1543.4	–
313.15 K, x1 = 0.8555	919.421	1562.1	–
313.15 K, x1 = 0.9092	924.691	1580.8	–
313.15 K, x1 = 0.953	928.787	1595.2	–

NCCNCCN [di(2-aminoethyl)amine] + CC(C)CO
Conditions	mass density [kg/m3]	speed of sound [m/s]	viscosity [mPa·s]
293.15 K, x1 = 0.054	815.237	1243	–
293.15 K, x1 = 0.1043	826.644	1275.2	–
293.15 K, x1 = 0.1529	836.817	1305.2	–
293.15 K, x1 = 0.2068	847.162	1337.4	–
293.15 K, x1 = 0.2535	855.512	1364.9	–
293.15 K, x1 = 0.305	863.833	1390.5	–
293.15 K, x1 = 0.4057	878.879	1439.4	–
293.15 K, x1 = 0.5036	892.182	1484.7	–
293.15 K, x1 = 0.6053	905.319	1531.6	–
293.15 K, x1 = 0.7048	919.507	1570.3	–
293.15 K, x1 = 0.8098	929.46	1613.2	–
293.15 K, x1 = 0.8522	933.916	1630.9	–
293.15 K, x1 = 0.9074	939.952	1653.2	–
293.15 K, x1 = 0.9537	944.995	1671.9	–
298.15 K, x1 = 0.054	811.313	1226.2	4.027
298.15 K, x1 = 0.1043	822.66	1258	4.548
298.15 K, x1 = 0.1529	832.792	1287.9	5.094
298.15 K, x1 = 0.2068	843.096	1319.8	5.514
298.15 K, x1 = 0.2535	851.38	1345.4	5.73
298.15 K, x1 = 0.305	859.744	1372.5	5.908
298.15 K, x1 = 0.4057	874.785	1421.6	6.024
298.15 K, x1 = 0.5036	888.088	1466.7	5.962
298.15 K, x1 = 0.6053	901.203	1511.4	5.795
298.15 K, x1 = 0.7048	915.398	1551.7	5.661
298.15 K, x1 = 0.8098	925.283	1594.3	5.603
298.15 K, x1 = 0.8522	929.73	1611.7	5.574
298.15 K, x1 = 0.9074	935.74	1633.9	5.541
298.15 K, x1 = 0.9537	940.776	1651.9	5.539
303.15 K, x1 = 0.054	807.355	1209.3	3.292
303.15 K, x1 = 0.1043	818.653	1241.1	3.707
303.15 K, x1 = 0.1529	828.735	1270.7	4.092
303.15 K, x1 = 0.2068	839.013	1302.4	4.365
303.15 K, x1 = 0.2535	847.289	1328.1	4.521
303.15 K, x1 = 0.305	855.641	1355.1	4.656
303.15 K, x1 = 0.4057	870.683	1404.1	4.762
303.15 K, x1 = 0.5036	883.968	1449.2	4.732
303.15 K, x1 = 0.6053	897.071	1493.2	4.695
303.15 K, x1 = 0.7048	911.268	1533.6	4.652
303.15 K, x1 = 0.8098	921.103	1575.5	4.575
303.15 K, x1 = 0.8522	925.54	1592.9	4.525
303.15 K, x1 = 0.9074	931.531	1614.5	4.508
303.15 K, x1 = 0.9537	936.554	1632.6	4.49
308.15 K, x1 = 0.054	803.363	1192.6	2.815
308.15 K, x1 = 0.1043	814.618	1224.2	3.146
308.15 K, x1 = 0.1529	824.666	1254	3.463
308.15 K, x1 = 0.2068	834.918	1285.4	3.654
308.15 K, x1 = 0.2535	843.178	1310.6	3.768
308.15 K, x1 = 0.305	851.532	1337.4	3.855
308.15 K, x1 = 0.4057	866.568	1386.9	3.927
308.15 K, x1 = 0.5036	879.851	1431.7	3.966
308.15 K, x1 = 0.6053	892.938	1475.8	3.919
308.15 K, x1 = 0.7048	907.117	1515.9	3.899
308.15 K, x1 = 0.8098	916.922	1556.7	3.817
308.15 K, x1 = 0.8522	921.354	1574.1	3.807
308.15 K, x1 = 0.9074	927.328	1595.3	3.789
308.15 K, x1 = 0.9537	932.338	1613.3	3.78
313.15 K, x1 = 0.054	799.326	1175.8	–
313.15 K, x1 = 0.1043	810.545	1208	–
313.15 K, x1 = 0.1529	820.566	1237.8	–
313.15 K, x1 = 0.2068	830.795	1269.1	–
313.15 K, x1 = 0.2535	839.045	1294.6	–
313.15 K, x1 = 0.305	847.399	1321.3	–
313.15 K, x1 = 0.4057	862.439	1371	–
313.15 K, x1 = 0.5036	875.718	1414.9	–
313.15 K, x1 = 0.6053	888.795	1459.1	–
313.15 K, x1 = 0.7048	902.896	1499.5	–
313.15 K, x1 = 0.8098	912.74	1538.9	–
313.15 K, x1 = 0.8522	917.161	1555.8	–
313.15 K, x1 = 0.9074	923.121	1576.3	–
313.15 K, x1 = 0.9537	928.116	1593.7	–
